According to patent US8669249B2, “Poly (ADP-ribose) polymerase (PARP) inhibitors” (Takeda Pharmaceutical Company Limited, priority 2009, dated 2014):

target: T1, PARP (Homo sapiens, UniProt P09874); experiment: PARP ELISA (ELISA-based colorimetric PARP/Apoptosis Assay kit, Trevigen); type: biochemical; conditions: pIC50=-log10 IC50, IC50 in mol/L; inhibition of PARP catalytic activity
T1 construct: purchased Trevigen 4684-096-K HT (kit); 4684-096-01 (PARP enzyme)
Method: Inhibition Constant (IC50) from PARP ELISA
After 10 minutes of catalysis the reaction is quenched by solvent aspiration followed by irrigation of the assay wells 4 times with phosphate buffered saline (PBS) containing 0.1% t-Octylphenoxypolyethoxyethanol (Triton® X-100). Mouse Anti-poly ADP ribose (PAR) monoclonal antibody, goat antimouse immunoglobulin G (IgG)-horse radish peroxidase (HRP) conjugate and HRP substrate are added according to the manufacture's specifications to generate a colorimetric signal proportional to PARP catalytic activity.

T1 sequence (P09874 whole entry): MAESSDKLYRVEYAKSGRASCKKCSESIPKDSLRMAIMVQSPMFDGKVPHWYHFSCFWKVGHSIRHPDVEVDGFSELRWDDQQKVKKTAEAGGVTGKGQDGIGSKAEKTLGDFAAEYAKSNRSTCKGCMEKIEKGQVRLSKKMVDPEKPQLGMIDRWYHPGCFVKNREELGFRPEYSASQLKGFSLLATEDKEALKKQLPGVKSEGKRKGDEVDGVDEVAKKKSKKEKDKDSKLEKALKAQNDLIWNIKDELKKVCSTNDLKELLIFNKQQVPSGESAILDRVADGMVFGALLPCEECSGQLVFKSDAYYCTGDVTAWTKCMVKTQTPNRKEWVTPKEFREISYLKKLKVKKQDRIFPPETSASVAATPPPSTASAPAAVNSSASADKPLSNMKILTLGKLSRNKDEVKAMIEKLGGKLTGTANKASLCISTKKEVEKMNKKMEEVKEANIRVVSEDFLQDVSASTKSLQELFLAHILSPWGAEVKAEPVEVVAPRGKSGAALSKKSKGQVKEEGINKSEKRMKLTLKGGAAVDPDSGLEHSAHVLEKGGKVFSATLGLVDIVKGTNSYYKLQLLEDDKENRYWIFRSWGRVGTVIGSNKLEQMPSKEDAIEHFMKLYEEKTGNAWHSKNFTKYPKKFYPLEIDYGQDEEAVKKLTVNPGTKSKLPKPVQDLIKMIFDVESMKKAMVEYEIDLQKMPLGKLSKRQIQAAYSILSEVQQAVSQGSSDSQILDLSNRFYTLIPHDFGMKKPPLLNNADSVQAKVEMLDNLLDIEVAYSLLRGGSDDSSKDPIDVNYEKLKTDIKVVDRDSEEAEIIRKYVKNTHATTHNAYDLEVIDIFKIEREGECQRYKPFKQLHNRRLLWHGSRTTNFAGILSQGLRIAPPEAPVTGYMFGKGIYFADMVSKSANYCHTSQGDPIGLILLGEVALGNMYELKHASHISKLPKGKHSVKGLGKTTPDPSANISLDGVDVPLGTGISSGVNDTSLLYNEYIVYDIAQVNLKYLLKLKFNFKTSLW

| IC50 [µM] | SMILES |
| --- | --- |
| > 0.2 | CC1Oc2c(Cl)cc(CN3CCN(c4ccc(C(=O)O)cc4)CC3)cc2NC1=O (centres unmarked) [Compound 307, 4-(4-((8-Chloro-2-methyl-3-oxo-3,4-dihydro-2H-benzo[b][1,4]oxazin-6-yl)methyl)piperazin-1-yl)benzoic acid] |
| 0.0316 | CC(C)NC(=O)c1ccc(N2CCN(Cc3cc(Cl)c4c(c3)NC(=O)C(C)O4)CC2)cc1 (centres unmarked) [Compound 310, 4-(4-((8-Chloro-2-methyl-3-oxo-3,4-dihydro-2H-benzo[b][1,4]oxazin-6-yl)methyl)piperazin-1-yl)-N-isopropylbenzamide] |
| 0.0398 | CC1Oc2c(Cl)cc(CN3CCN(c4ccc(C(=O)NC5CC5)cc4)CC3)cc2NC1=O (centres unmarked) [Compound 311, 4-(4-((8-Chloro-2-methyl-3-oxo-3,4-dihydro-2H-benzo[b][1,4]oxazin-6-yl)methyl)piperazin-1-yl)-N-cyclopropylbenzamide] |
| > 0.2 | CCOC(=O)c1ccc(N2CCN(Cc3cc(F)c4c(c3)NC(=O)C(C)O4)CC2)nc1 (centres unmarked) [Compound 312, Ethyl 6-(4-((8-fluoro-2-methyl-3-oxo-3,4-dihydro-2H-benzo[b][1,4]oxazin-6-yl)methyl)piperazin-1-yl)nicotinate] |
| > 0.2 | CC1Oc2c(F)cc(CN3CCN(c4ccc(C(=O)O)cn4)CC3)cc2NC1=O (centres unmarked) [Compound 313, 6-(4-((8-Fluoro-2-methyl-3-oxo-3,4-dihydro-2H-benzo[b][1,4]oxazin-6-yl)methyl)piperazin-1-yl)nicotinic acid] |
| 0.0501 | CCNC(=O)c1ccc(N2CCN(Cc3cc(F)c4c(c3)NC(=O)C(C)O4)CC2)nc1 (centres unmarked) [Compound 315, N-Ethyl-6-(4-((8-fluoro-2-methyl-3-oxo-3,4-dihydro-2H-benzo[b][1,4]oxazin-6-yl)methyl)piperazin-1-yl)nicotinamide] |
| 0.1 | CC(C)NC(=O)c1ccc(N2CCN(Cc3cc(F)c4c(c3)NC(=O)C(C)O4)CC2)nc1 (centres unmarked) [Compound 316, 6-(4-((8-Fluoro-2-methyl-3-oxo-3,4-dihydro-2H-benzo[b][1,4]oxazin-6-yl)methyl)piperazin-1-yl)-N-isopropylnicotinamide] |
| 0.0501 | CC1Oc2c(F)cc(CN3CCN(c4ccc(C(=O)NC5CC5)cn4)CC3)cc2NC1=O (centres unmarked) [Compound 317, N-Cyclopropyl-6-(4-((8-fluoro-2-methyl-3-oxo-3,4-dihydro-2H-benzo[b][1,4]oxazin-6-yl)methyl)piperazin-1-yl)nicotinamide] |
| > 0.2 | Cc1cc2c(cc1CN1CCC(c3ccc(Cl)cc3)CC1)NC(=O)C(C)O2 (centres unmarked) [Compound 322, 6-((4-(4-Chlorophenyl)piperidin-1-yl)methyl)-2,7-dimethyl-2H-benzo[b][1,4]oxazin-3(4H)-one] |
| > 0.2 | Cc1c(CN2CCN(c3ccc(Cl)cc3)CC2)ccc2c1NC(=O)C(C)O2 (centres unmarked) [Compound 325, 6-((4-(4-Chlorophenyl)piperazin-1-yl)methyl)-2,5-dimethyl-2H-benzo[b][1,4]oxazin-3(4H)-one] |
| > 0.2 | Cc1c(CN2CCC(c3ccc(Cl)cc3)CC2)ccc2c1NC(=O)C(C)O2 (centres unmarked) [Compound 327, 6-((4-(4-Chlorophenyl)piperidin-1-yl)methyl)-2,5-dimethyl-2H-benzo[b][1,4]oxazin-3(4H)-one] |
| > 0.2 | CC1Oc2cc(F)c(CN3CCN(c4ccc(Cl)cc4)CC3)cc2NC1=O (centres unmarked) [Compound 330, 6-((4-(4-Chlorophenyl)piperazin-1-yl)methyl)-7-fluoro-2-methyl-2H-benzo[b][1,4]oxazin-3(4H)-one] |
| > 0.2 | CC1Oc2cc(F)c(CN3CCC(c4ccc(Cl)cc4)CC3)cc2NC1=O (centres unmarked) [Compound 332, 6-((4-(4-Chlorophenyl)piperidin-1-yl)methyl)-7-fluoro-2-methyl-2H-benzo[b][1,4]oxazin-3(4H)-one] |
| > 0.2 | CCOC(=O)c1ccc(N2CCN(Cc3cc4c(cc3F)OC(C)C(=O)N4)CC2)cc1 (centres unmarked) [Compound 333, Ethyl 4-(4-((7-fluoro-2-methyl-3-oxo-3,4-dihydro-2H-benzo[b][1,4]oxazin-6-yl)methyl)piperazin-1-yl)benzoate] |
| > 0.2 | CC1Oc2cc(F)c(CN3CCN(c4ccc(C(=O)O)cc4)CC3)cc2NC1=O (centres unmarked) [Compound 334, 4-(4-((7-Fluoro-2-methyl-3-oxo-3,4-dihydro-2H-benzo[b][1,4]oxazin-6-yl)methyl)piperazin-1-yl)benzoic acid] |
| > 0.2 | CCNC(=O)c1ccc(N2CCN(Cc3cc4c(c(-c5ccccc5)c3)OC(C)C(=O)N4)CC2)cc1 (centres unmarked) [Compound 349, N-Ethyl-4-(4-((2-methyl-3-oxo-8-phenyl-3,4-dihydro-2H-benzo[b][1,4]oxazin-6-yl)methyl)piperazin-1-yl)benzamide] |
| 0.0794 | C=CCc1cc(CN2CCN(c3ccc(C(=O)NCC)cc3)CC2)cc2c1OC(C)C(=O)N2 (centres unmarked) [Compound 356, 4-(4-((8-Allyl-2-methyl-3-oxo-3,4-dihydro-2H-benzo[b][1,4]oxazin-6-yl)methyl)piperazin-1-yl)-N-ethylbenzamide] |
| > 0.2 | CC(C)(C)OC(=O)N1CCN(Cc2ccc3c(c2)NC(=O)CO3)CC1 [Compound 357, tert-Butyl 4-((3-oxo-3,4-dihydro-2H-benzo[b][1,4]oxazin-6-yl)methyl)piperazine-1-carboxylate] |
| > 0.2 | CC1Oc2ccc(CN3CCN(c4ccc(C(=O)N(C)C)cc4)CC3)cc2NC1=O (centres unmarked) [Compound 378, N,N-Dimethyl-4-(4-((2-methyl-3-oxo-3,4-dihydro-2H-benzo[b][1,4]oxazin-6-yl)methyl)piperazin-1-yl)benzamide] |
| > 0.2 | CCN(C)C(=O)c1ccc(N2CCN(Cc3ccc4c(c3)NC(=O)C(C)O4)CC2)cc1 (centres unmarked) [Compound 379, N-Ethyl-N-methyl-4-(4-((2-methyl-3-oxo-3,4-dihydro-2H-benzo[b][1,4]oxazin-6-yl)methyl)piperazin-1-yl)benzamide] |
| > 0.2 | CC(C)NC(=O)c1ccc(N2CCC(Cc3ccc4c(c3)NC(=O)C(C)O4)CC2)cc1 (centres unmarked) [Compound 391, N-Isopropyl-4-(4-((2-methyl-3-oxo-3,4-dihydro-2I-benzo[b][1,4]oxazin-6-yl)methyl)piperidin-1-yl)benzamide] |
| > 0.2 | CC1Oc2ccc(CC3CCN(c4ccc(C(=O)NC5CC5)cc4)CC3)cc2NC1=O (centres unmarked) [Compound 392, N-Cyclopropyl-4-(4-((2-methyl-3-oxo-3,4-dihydro-2I-benzo[b][1,4]oxazin-6-yl)methyl)piperidin-1-yl)benzamide] |
| > 0.2 | CCNC(=O)c1ccc(N2CCC(Cc3ccc4c(c3)NC(=O)C(C)O4)CC2)cc1 (centres unmarked) [Compound 393, N-Ethyl-4-(4-((2-methyl-3-oxo-3,4-dihydro-2H-benzo[b][1,4]oxazin-6-yl)methyl)piperidin-1-yl)benzamide] |
| > 0.2 | CCOC(=O)c1ccc(N2CCC(Oc3ccc4c(c3)NC(=O)C(C)O4)CC2)cc1 (centres unmarked) [Compound 394, Ethyl 4-(4-(2-methyl-3-oxo-3,4-dihydro-2H-benzo[b][1,4]oxazin-6-yloxy)piperidin-1-yl)benzoate] |
| > 0.2 | CNC(=O)c1ccc(N2CCC(Oc3ccc4c(c3)NC(=O)C(C)O4)CC2)cc1 (centres unmarked) [Compound 395, N-Methyl-4-(4-(2-methyl-3-oxo-3,4-dihydro-2H-benzo[b][1,4]oxazin-6-yloxy)piperidin-1-yl)benzamide] |

| SMILES | IC50 [µM] |
| --- | --- |
| Cc1c(CN2CC=C(c3ccc(Cl)cc3)CC2)ccc2c1NC(=O)C(C)O2 (centres unmarked) [Compound 326, 6-((4-(4-Chlorophenyl)-5,6-dihydropyridin-1(2H)-yl)methyl)-2,5-dimethyl-2H-benzo[b][1,4]oxazin-3(4H)-one] | > 0.2 |
